# Assay: Entrapment efficiency of small molecules in L-His crystals (HPLC of supernatant)
# Type: physicochemical
# Settings: within L-His crystals; determined by HPLC
# Description: A 30 mg/mL solution of L-His (>99%, Sigma-Aldrich) was prepared by dissolving L-His powder in milli-Q water using a vortex mixer at ambient temperature in a Corning® 15 mL centrifuge tube with a closed cap. Then 500 μL of the aqueous solution of L-His and 500 μL of 200 proof ethanol (KOPTEC, PA, US) was added to 200 μL of the small molecule solution (2 mg/mL). The small molecules used in this study were Nile red (>98%, Sigma-Aldrich), pyrene (>98%, Sigma-Aldrich), β-carotene (>97%, Sigma-Aldrich), and doxorubicin HCl (DOX, >98%, Fluka, Mexico City, Mexico). The solution was vortexed for 15 seconds and kept static at ambient temperature. After 3 hours, crystals were collected and washed with ethanol to remove the free small molecules from the surface of the crystals and the supernatant was collected to measure the concentration of non-entrapped small molecules using HPLC. […] Each individual sample of small molecules was quantified based on an optimized method reported in the literature for β-carotene (Etzbach et al., “Characterization of Carotenoid Profiles in Goldenberry (Physalis peruviana L.) Fruits at Various Ripening Stages and in Different Plant Tissues by HPLC-DAD-APCI-MS^n,” Food Chem. 245:508-517 (2018), which is hereby incorporated by reference in its entirety), Nile red (Wu et al., “Drug Delivery to the Skin from Sub-Micron Polymeric Particle Formulations: Influence of Particle Size and Polymer Hydrophobicity,” Pharm Res. 26(8):1995-2001 (2009), which is hereby incorporated by reference in its entirety), pyrene (Jia et al., “Effect of Root Exudates on the Mobility of Pyrene in Mangrove Sediment-Water System,” Catena 162:396-401 (2017), which is hereby incorporated by reference in its entirety), and DOX (Chi et al., “Redox-Sensitive and Hyaluronic Acid Functionalized Liposomes for Cytoplasmic Drug Delivery to Osteosarcoma in Animal Models,” J. Control Release 261:113-125 (2017), which is hereby incorporated by reference in its entirety). […]
row,Entrapment efficiency,Structure (SMILES)
1,62%,CCN(CC)c1ccc2nc3c4ccccc4c(=O)cc-3oc2c1 [Nile red]
2,~96%,CC1=C(/C=C/C(C)=C/C=C/C(C)=C/C=C/C=C(C)/C=C/C=C(C)/C=C/C2=C(C)CCCC2(C)C)C(C)(C)CCC1 [β-carotene]

row,Structure (SMILES),Entrapment efficiency
1,c1cc2ccc3cccc4ccc(c1)c2c34 [pyrene],87%
